What all share (type): cell-based
The target in one data set is T1, OATP2B1 (Homo sapiens, UniProt O94956).
T1 construct: expressed in transfected cells; host or cells: A431 cells
T1 sequence (O94956 1-709): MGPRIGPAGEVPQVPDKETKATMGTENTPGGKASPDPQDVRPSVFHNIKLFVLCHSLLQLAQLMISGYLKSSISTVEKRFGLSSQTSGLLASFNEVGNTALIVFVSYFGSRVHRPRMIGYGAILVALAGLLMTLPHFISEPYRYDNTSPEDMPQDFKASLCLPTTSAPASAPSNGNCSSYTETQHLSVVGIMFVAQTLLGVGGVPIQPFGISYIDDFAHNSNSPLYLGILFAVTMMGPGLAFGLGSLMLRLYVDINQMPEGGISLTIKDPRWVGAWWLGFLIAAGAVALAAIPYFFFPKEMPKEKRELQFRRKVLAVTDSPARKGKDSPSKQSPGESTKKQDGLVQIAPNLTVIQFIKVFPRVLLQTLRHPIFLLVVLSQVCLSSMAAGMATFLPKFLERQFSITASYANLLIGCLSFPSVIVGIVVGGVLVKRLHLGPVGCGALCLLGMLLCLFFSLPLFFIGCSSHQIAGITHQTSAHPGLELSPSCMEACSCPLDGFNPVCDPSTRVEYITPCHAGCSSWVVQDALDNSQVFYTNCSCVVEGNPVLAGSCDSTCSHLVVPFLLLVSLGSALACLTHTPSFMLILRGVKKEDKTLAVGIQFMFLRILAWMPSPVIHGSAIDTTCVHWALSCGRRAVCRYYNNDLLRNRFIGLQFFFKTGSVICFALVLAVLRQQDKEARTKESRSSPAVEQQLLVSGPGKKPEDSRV
The experiment in a line: Pyranine transport inhibition in A431 cells overexpressing OATP2B1. How it is done:
(§1) A431 cells overexpressing OATP1B1, OATP1B3, or OATP2B1 or their mock transfected controls were generated previously[30] and maintained in Dulbecco’s modified Eagle medium (DMEM, Gibco, Thermofisher Scientific, Waltham, MA, US) supplemented with 10% fetal bovine serum, 2 mM L-glutamine, 100 units/mL penicillin, and 100 μg/mL streptomycin. Expression and function of OATPs in the cell lines were checked regularly.
(§2) Interaction with OATP1B1, OATP1B3, or OATP2B1 was tested in an indirect transport assay using pyranine (8-hydroxypyrene-1,3,6-trisulfonic acid trisodium salt, H1529, Sigma, Merck, Budapest, Hungary) as the test substrate[31],[32] A431 cells overexpressing OATP1B1, OATP1B3, or OATP2B1 or their mock transfected controls were seeded on 96-well plates in a density of 8 × 10^4 cells per well in 200 μL of cell culture medium 1 day prior to the transport measurements. […] The transport reaction was started by the addition of 50 μL of uptake buffer containing pyranine in a final concentration of 10 μM (OATP1B1) or 20 μM (OATP1B3 and OATP2B1), and the cells were further incubated at 37 °C for 15 min (OATP1B1 and OATP2B1) or 30 min (OATP1B3). The reaction was stopped by removing the supernatant. After repeated washing with ice-cold PBS, fluorescence was determined in an Enspire plate reader (PerkinElmer, Waltham, MA) with excitation/emission wavelengths of 460/510 nm. OATP-dependent transport was calculated by extracting fluorescence measured in mock transfected cells and normalized to the fluorescence signal obtained in the absence of the tested compounds (100%). Experiments were repeated in at least three biological replicates.

The next data set deals with T2, OATP1B1 (Homo sapiens, UniProt Q9Y6L6).
T2 construct: expressed in transfected cells; host or cells: A431 cells
T2 sequence (Q9Y6L6 1-691): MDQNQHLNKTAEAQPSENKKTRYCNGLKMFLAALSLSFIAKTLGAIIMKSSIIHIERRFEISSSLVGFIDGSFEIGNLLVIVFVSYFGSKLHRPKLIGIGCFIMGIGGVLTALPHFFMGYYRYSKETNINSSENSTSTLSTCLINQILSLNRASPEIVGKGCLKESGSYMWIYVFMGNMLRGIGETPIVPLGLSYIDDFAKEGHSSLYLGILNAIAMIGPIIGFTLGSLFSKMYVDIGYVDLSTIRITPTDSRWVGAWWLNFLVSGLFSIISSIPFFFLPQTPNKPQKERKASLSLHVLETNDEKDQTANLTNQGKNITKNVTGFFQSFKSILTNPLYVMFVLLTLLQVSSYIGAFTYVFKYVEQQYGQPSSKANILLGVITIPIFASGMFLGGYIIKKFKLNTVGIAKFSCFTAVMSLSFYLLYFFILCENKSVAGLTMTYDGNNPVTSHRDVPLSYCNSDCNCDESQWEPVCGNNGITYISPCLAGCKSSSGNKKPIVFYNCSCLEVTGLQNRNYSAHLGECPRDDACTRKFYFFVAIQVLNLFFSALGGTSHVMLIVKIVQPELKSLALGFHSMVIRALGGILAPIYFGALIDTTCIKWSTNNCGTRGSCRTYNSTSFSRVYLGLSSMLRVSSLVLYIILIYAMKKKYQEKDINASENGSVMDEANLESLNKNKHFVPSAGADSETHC
The experiment in a line: Pyranine transport inhibition in A431 cells overexpressing OATP1B1. How it is done:
as §1, §2

In a further data set the target is T3, OATP1B3 (Homo sapiens, UniProt Q9NPD5).
T3 construct: expressed in transfected cells; host or cells: A431 cells
T3 sequence (Q9NPD5 1-702): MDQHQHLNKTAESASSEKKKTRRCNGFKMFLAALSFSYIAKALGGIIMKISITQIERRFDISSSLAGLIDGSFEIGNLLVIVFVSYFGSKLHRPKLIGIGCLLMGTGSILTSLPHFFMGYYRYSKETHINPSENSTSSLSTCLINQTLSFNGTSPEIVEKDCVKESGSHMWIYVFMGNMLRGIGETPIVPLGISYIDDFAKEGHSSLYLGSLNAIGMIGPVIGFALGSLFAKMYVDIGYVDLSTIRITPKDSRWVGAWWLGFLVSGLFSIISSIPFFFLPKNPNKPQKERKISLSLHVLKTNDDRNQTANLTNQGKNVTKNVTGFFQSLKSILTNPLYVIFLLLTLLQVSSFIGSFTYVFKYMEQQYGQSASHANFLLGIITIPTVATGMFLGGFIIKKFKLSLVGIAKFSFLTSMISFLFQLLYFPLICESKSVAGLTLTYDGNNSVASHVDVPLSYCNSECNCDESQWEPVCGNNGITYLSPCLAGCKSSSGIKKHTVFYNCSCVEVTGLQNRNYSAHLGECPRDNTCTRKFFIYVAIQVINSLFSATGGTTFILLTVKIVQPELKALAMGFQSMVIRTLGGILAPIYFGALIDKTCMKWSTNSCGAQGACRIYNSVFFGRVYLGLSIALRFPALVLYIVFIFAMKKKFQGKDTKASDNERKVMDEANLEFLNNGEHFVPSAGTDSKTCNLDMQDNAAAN
The experiment in a line: Pyranine transport inhibition in A431 cells overexpressing OATP1B3. How it is done: as §1, §2

Setting [1] is: IC50 (μM) OATP2B1, initial three-point screen (1, 10, 100 μM), category by concentration needed for 50% inhibition, pyranine 20 μM, 15 min, pH 5.5.
Where [2] appears, read: full dose-response curve, eight concentrations, Hill1 fit, read-out: IC50 (μM) OATP2B1.
Setting [3] is: full dose-response curve, eight concentrations, Hill1 fit, read-out: IC50 (μM) OATP1B3.
Where [4] appears, read: initial three-point screen (1, 10, 100 μM), category by concentration needed for 50% inhibition, pyranine 20 μM, 30 min, pH 5.5.
[5] abbreviates: initial three-point screen (1, 10, 100 μM), category by concentration needed for 50% inhibition, pyranine 20 μM, 15 min, pH 5.5, read-out: IC50 (μM) OATP2B1.
[6] abbreviates: initial three-point screen (1, 10, 100 μM), category by concentration needed for 50% inhibition, pyranine 10 μM, 15 min, pH 5.5, read-out: IC50 (μM) OATP1B1.
The mark [7] stands for this setting: initial three-point screen (1, 10, 100 μM), category by concentration needed for 50% inhibition, pyranine 20 μM, 30 min, pH 5.5, read-out: IC50 (μM) OATP1B3.

The values below come from PMC9795544, “Identifying Novel Inhibitors for Hepatic Organic Anion Transporting Polypeptides by Machine Learning-Based Virtual Screening” (Journal of Chemical Information and Modeling, 2022).

Usually IC50 stands for the concentration that gives 50% inhibition.

Molecules are shown by their SMILES. Values joined by “and” are separate entries in the source; they are usually repeats but may differ in a detail not shown here. Equal values may be shown once. Read-outs that look alike come from different tables or passages of the source.

With `O=C(Cc1ccccc1[N+](=O)[O-])NCC1CC2c3ccccc3C1c1ccccc12` (stereo not drawn) [B4, [O-][N+](=O)c1ccccc1CC(=O)NCC2CC3c4ccccc4C2c5ccccc35], the IC50 at OATP2B1 (setting [1]) is 1 to 10 µM; at OATP2B1 (setting [2]), 2.4 µM and 2.37 µM; at OATP1B1 (full dose-response curve, eight concentrations, Hill1 fit, read-out: IC50 (μM) OATP1B1), roughly 10 µM; against OATP1B3 (IC50 (μM) OATP1B3, initial three-point screen (1, 10, 100 μM), category by concentration needed for 50% inhibition, pyranine 20 μM, 30 min, pH 5.5), 1 to 10 µM; on OATP1B3 (setting [3]), roughly 10 µM. Also, the IC50 at 15 min on OATP1B1 (human, pH 5.5) is greater than 10 µM.

For the compound `O=C(NCc1ccccn1)c1ccc2c(c1)S(=O)(=O)c1ccccc1C2=O` [B5, O=C(NCc1ccccn1)c2ccc3C(=O)c4ccccc4S(=O)(=O)c3c2], the 50% inhibitory concentration (IC50) at OATP2B1 (setting [1]) was 1 to 10 µM; at OATP1B1 it was greater than 10 µM. The “IC50 (μM) OATP1B3” value on OATP1B3 (setting [4]) is reported as “Activated”.

As to `O=C(CSc1nc2cc(C(F)(F)F)ccc2n1Cc1ccccc1)c1ccc[nH]1` [B6, FC(F)(F)c1ccc2c(c1)nc(SCC(=O)c3ccc[nH]3)n2Cc4ccccc4], the IC50 on OATP2B1 (setting [5]), at OATP1B1 (setting [6]) and on OATP1B3 (setting [7]) was greater than 10 µM each time.

As for `CSCCC(NC(=O)c1ccco1)C(=O)OCc1cc(=O)oc2cc(O)ccc12` (stereo not drawn) [B7, CSCCC(NC(=O)c1occc1)C(=O)OCC2=CC(=O)Oc3cc(O)ccc23], the IC50 at OATP2B1 (setting [5]) is 1 to 10 µM; at OATP1B1 (setting [6]), 1 to 10 µM; on OATP1B3 (setting [7]) it was greater than 10 µM.

As for `CCc1ccccc1NC(=O)CN1CCN(C(=O)c2cc(-c3ccncc3)nc3ccccc23)CC1` [C3, CCc1ccccc1NC(=O)CN2CCN(CC2)C(=O)c3cc(nc4ccccc34)c5ccncc5], the IC50 at OATP2B1 (setting [5]) was 1 to 10 µM; at OATP1B1 (setting [6]) it was 1 to 10 µM; at OATP1B3 (setting [7]), greater than 10 µM.

Take `Cc1cccn2cc(COC(=O)c3ccc4c(c3)C(=O)N(Cc3ccco3)C4=O)nc12` [C4, Cc1cccn2cc(COC(=O)c3ccc4C(=O)N(Cc5occc5)C(=O)c4c3)nc12]: the IC50 on OATP2B1 (setting [1]) and against OATP1B1 was greater than 10 µM each time. Moreover, at OATP1B3 (setting [4]), the “IC50 (μM) OATP1B3” value is given as “no effect”.

On to `Cc1cccc2nc(CSc3nc4sc5c(c4c(=O)n3Cc3ccccc3)CCCC5)cn12` [C5, Cc1cccc2nc(CSC3=Nc4sc5CCCCc5c4C(=O)N3Cc6ccccc6)cn12], for which the IC50 at OATP2B1 (setting [5]) and at OATP1B1 (setting [6]) was greater than 10 µM throughout. At OATP1B3 (setting [4]), the “IC50 (μM) OATP1B3” value was “no effect”.

Regarding `CC(C)c1cc(C(=O)N2CCC(n3c(=O)[nH]c4ccccc43)CC2)c2cnn(C(C)C)c2n1` [C6, CC(C)c1cc(C(=O)N2CCC(CC2)N3C(=O)Nc4ccccc34)c5cnn(C(C)C)c5n1], the IC50 on OATP2B1 (setting [5]), on OATP1B1 (setting [6]) and at OATP1B3 (setting [7]) was 1 to 10 µM throughout.

As to `O=C(O)c1cc(/C=C/c2c(-c3ccccc3)nc3ccccn23)nc2ccccc12` [C7, OC(=O)c1cc(\C=C\c2c(nc3ccccn23)c4ccccc4)nc5ccccc15], the IC50 is 0.04 µM on OATP2B1 (setting [2]); less than 1 µM on OATP2B1 (setting [5]); greater than 10 µM on OATP1B1; 5.4 µM on OATP1B3 (setting [3]); 1 to 10 µM at OATP1B3 (setting [7]). Further, the “fold lower affinity on OATP1B3 than on OATP2B1” value on OATP1B3 (ratio of IC50 OATP1B3 / OATP2B1) is recorded as 135 fold.

With `O=C1NC2(CCCc3sccc32)C(=O)N1CC(=O)N1c2ccccc2OCC1c1ccccc1` (stereo not drawn) [D2, O=C(CN1C(=O)NC2(CCCc3sccc23)C1=O)N4C(COc5ccccc45)c6ccccc6], the IC50 at OATP2B1 (setting [5]), at OATP1B1 (setting [6]) and on OATP1B3 (setting [7]) was greater than 10 µM each time.

As for `O=C(CCN1C(=O)NC2(CCCC2)C1=O)Nc1nc(-c2ccc3c(c2)CCC3)cs1` [D3, O=C(CCN1C(=O)NC2(CCCC2)C1=O)Nc3nc(cs3)c4ccc5CCCc5c4], on OATP2B1 (setting [5]), the IC50 is greater than 10 µM. Besides, on OATP1B1 (initial three-point screen (1, 10, 100 μM), category by concentration needed for 50% inhibition, pyranine 10 μM, 15 min, pH 5.5), the “IC50 (μM) OATP1B1” value is given as “no effect”. For the same compound, the “IC50 (μM) OATP1B3” value against OATP1B3 (setting [4]) is given as “no effect”.

Turning to `O=C(COc1ccc([N+](=O)[O-])cc1)Nc1c(C(=O)N2CCOCC2)oc2ccccc12` [D7, [O-][N+](=O)c1ccc(OCC(=O)Nc2c(oc3ccccc23)C(=O)N4CCOCC4)cc1], the IC50 against OATP2B1 (setting [1]) and at OATP1B1 was greater than 10 µM throughout. For the same compound, the “IC50 (μM) OATP1B3” value against OATP1B3 (setting [4]) is “no effect”.

For `COc1ccc(C2(c3ccc(OC)cc3)NC(=O)N(CC(=O)c3ccc4c(c3)OCO4)C2=O)cc1` [E2, COc1ccc(cc1)C2(NC(=O)N(CC(=O)c3ccc4OCOc4c3)C2=O)c5ccc(OC)cc5], the IC50 at OATP2B1 (setting [5]) is 1 to 10 µM; at OATP1B1 (setting [6]), greater than 10 µM; on OATP1B3 (setting [7]), 1 to 10 µM.
